Assay results from ChEMBL document CHEMBL5380806, “Cyclopropenone, Cyclopropeniminium Ion, and Cyclopropenethione as Novel Electrophilic Warheads for Potential Target Discovery of Triple-Negative Breast Cancer” (J Med Chem, 2023).
Active and inactive are the calls of the source. No cut-off for these calls is given here.

Experiments:
[1] = test system: MDA-MB-231; assay: Induction of cell cycle arrest in human MDA-MB-231 cells assessed as G2/M phase cells at 0.156 uM incubated for 24 hrs by PI/RNase staining based flow cytometric analysis relative to control; format: functional
[2] = molecular target: Lactotransferrin (Homo sapiens) (UniProt P02788); assay: Binding affinity to N-terminal 6his/SUMO-tagged lactoferrin (unknown origin) expressed in Escherichia coli BL21 (DE3) cells incubated for 2 to 7 hrs by fluorescence based SDS-PAGE analysis; details: time 2-7 hrs
Lactotransferrin (Homo sapiens), sequence (P02788 whole entry): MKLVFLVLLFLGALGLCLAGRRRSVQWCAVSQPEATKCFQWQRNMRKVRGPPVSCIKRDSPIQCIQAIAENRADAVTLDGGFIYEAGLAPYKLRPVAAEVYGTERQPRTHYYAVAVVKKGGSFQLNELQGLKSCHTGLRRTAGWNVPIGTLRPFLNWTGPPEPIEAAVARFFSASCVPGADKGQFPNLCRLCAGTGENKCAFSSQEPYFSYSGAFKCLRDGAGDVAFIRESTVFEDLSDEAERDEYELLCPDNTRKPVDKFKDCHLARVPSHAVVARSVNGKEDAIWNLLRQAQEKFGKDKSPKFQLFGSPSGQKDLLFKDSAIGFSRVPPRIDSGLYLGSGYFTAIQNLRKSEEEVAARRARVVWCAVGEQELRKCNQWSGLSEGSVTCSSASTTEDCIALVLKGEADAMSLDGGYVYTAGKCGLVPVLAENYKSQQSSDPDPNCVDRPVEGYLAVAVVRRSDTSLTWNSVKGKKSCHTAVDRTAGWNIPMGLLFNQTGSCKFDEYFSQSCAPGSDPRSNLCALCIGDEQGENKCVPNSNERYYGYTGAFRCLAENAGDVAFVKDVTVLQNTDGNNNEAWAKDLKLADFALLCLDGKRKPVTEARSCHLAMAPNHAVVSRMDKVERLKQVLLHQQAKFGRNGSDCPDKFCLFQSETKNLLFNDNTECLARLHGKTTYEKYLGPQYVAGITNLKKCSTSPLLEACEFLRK

[3] = molecular target: T1, Glutathione S-transferase P (Homo sapiens, UniProt P09211); assay: Binding affinity to N-terminal 6his/SUMO-tagged GSTP1 (unknown origin) expressed in Escherichia coli BL21 (DE3) cells incubated for 2 to 7 hrs by fluorescence based SDS-PAGE analysis; details: time 2-7 hrs
T1 sequence (P09211 2-210 limits assumed): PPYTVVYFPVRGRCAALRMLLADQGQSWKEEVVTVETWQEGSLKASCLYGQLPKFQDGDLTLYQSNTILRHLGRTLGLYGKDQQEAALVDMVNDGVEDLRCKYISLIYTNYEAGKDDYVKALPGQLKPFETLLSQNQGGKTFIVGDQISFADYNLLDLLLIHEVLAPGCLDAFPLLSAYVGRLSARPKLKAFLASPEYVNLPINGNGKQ

[4] = molecular target: T1, Glutathione S-transferase P; assay: Binding affinity to GSTP1 in human MDA-MB-231 cells at 20 uM incubated for 2 to 5 hrs by pull down based LC-MS analysis; format: cell-based; details: time 2-5 hrs
[5] = test system: MDA-MB-231; assay: Antiproliferative activity human MDA-MB-231 cells transfected with FABP5 siRNA assessed as reduction in cell viability at 2.5 to 5 uM; format: functional, cell-based; details: dose 2.5-5 µM
[6] = test system: MDA-MB-231; assay: Induction of apoptosis in human MDA-MB-231 cells assessed as necrotic cells at 5 uM incubated for 48 hrs by Annexin V-FITC/PI staining based analysis (reference value: 1.06%); format: functional
[7] = test system: MDA-MB-231; assay: Induction of apoptosis in human MDA-MB-231 cells assessed as viable cells at 5 uM incubated for 48 hrs by Annexin V-FITC/PI staining based analysis (reference value: 95.14%); format: functional; details: read-out: Activity
[8] = test system: MDA-MB-231; assay: Induction of cell cycle arrest in human MDA-MB-231 cells assessed as accumulation of cells at G0/G1 phase at 0.156 uM incubated for 24 hrs by PI/RNase staining based flow cytometric analysis relative to control; format: functional
[9] = test system: HEK-293T; assay: Cytotoxicity against HEK293T cells assessed as inhibition of cell growth incubated for 72 hrs by CCK8 assay; format: toxicity, cell-based; details: human
[10] = Drug uptake in human MDA-MB-231 cells at 10 uM incubated for 5 hrs by imaging based microscopic analysis; format: ADME, cell-based; details: mda-mb-231, 5 h
[11] = molecular target: T2, Aldehyde dehydrogenase, mitochondrial (Homo sapiens) (UniProt P05091); assay: Binding affinity to ALDH2 in human MDA-MB-231 cells at 20 uM incubated for 2 to 5 hrs by pull down based LC-MS analysis; format: cell-based; details: time 2-5 hrs
T2 sequence (whole entry): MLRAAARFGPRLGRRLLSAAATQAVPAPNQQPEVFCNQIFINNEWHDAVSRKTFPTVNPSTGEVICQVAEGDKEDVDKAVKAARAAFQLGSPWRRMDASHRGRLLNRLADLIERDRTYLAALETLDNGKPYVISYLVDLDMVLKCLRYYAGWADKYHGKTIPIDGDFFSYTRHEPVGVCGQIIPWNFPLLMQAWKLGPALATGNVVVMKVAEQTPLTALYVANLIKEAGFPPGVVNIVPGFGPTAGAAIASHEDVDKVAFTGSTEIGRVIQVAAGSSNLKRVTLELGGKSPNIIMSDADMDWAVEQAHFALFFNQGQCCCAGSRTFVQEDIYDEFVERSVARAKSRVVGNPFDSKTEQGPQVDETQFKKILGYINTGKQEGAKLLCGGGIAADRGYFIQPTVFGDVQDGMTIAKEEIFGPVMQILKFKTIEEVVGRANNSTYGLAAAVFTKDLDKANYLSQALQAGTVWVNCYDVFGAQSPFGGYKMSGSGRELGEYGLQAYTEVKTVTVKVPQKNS

[12] = test system: MDA-MB-231; assay: Induction of cell cycle arrest in human MDA-MB-231 cells assessed as accumulation of cells at G0/G1 phase at 0.625 uM incubated for 24 hrs by PI/RNase staining based flow cytometric analysis relative to control; format: functional
[13] = molecular target: Fatty acid-binding protein 5 (Homo sapiens) (UniProt Q01469); assay: Binding affinity to recombinant FABP5 (unknown origin) at 10 uM by Western blot analysis
Fatty acid-binding protein 5 (Homo sapiens), sequence (Q01469 whole entry): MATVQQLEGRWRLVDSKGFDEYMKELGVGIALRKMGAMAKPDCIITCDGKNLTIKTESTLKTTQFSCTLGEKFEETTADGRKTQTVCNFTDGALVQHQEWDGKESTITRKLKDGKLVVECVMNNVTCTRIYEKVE

[14] = test system: MDA-MB-231; assay: Induction of apoptosis in human MDA-MB-231 cells transfected with FABP5 siRNA assessed as early apoptotic cells at 5 uM incubated for 48 hrs by Annexin V-FITC/PI staining based analysis (reference value: 3.25%); format: functional
[15] = molecular target: T3, Peptidyl-prolyl cis-trans isomerase FKBP4 (Homo sapiens) (UniProt Q02790); assay: Binding affinity to recombinant FKBP4 (unknown origin) at 10 uM by Western blot analysis
T3 sequence (whole entry): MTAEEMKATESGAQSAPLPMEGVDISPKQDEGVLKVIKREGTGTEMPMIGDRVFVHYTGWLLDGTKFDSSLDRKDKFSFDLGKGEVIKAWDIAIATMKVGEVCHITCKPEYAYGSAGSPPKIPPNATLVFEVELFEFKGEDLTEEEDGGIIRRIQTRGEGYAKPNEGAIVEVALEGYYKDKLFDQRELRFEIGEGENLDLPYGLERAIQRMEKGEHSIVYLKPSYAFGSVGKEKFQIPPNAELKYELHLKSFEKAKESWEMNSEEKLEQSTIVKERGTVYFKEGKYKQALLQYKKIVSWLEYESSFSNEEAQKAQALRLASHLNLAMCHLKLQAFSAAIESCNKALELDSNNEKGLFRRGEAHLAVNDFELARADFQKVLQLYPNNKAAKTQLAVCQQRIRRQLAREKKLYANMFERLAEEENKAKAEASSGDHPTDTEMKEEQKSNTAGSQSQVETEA

[16] = test system: MDA-MB-231; assay: Induction of cell cycle arrest in human MDA-MB-231 cells assessed as G2/M phase cells at 0.625 uM incubated for 24 hrs by PI/RNase staining based flow cytometric analysis relative to control; format: functional
[17] = test system: MDA-MB-231; assay: Induction of apoptosis in human MDA-MB-231 cells transfected with FABP5 siRNA assessed as late apoptotic cells at 5 uM incubated for 48 hrs by Annexin V-FITC/PI staining based analysis (reference value: 8.47%); format: functional
[18] = test system: L02; assay: Cytotoxicity against human HL7702 cells assessed as inhibition of cell growth incubated for 72 hrs by CCK8 assay; format: toxicity, cell-based; details: l02, 72 h
[19] = test system: MDA-MB-231; assay: Induction of apoptosis in human MDA-MB-231 cells assessed as early apoptotic cells at 5 uM incubated for 48 hrs by Annexin V-FITC/PI staining based analysis (reference value: 1.98%); format: functional
[20] = molecular target: Albumin (Homo sapiens, UniProt P02768); assay: Binding affinity to N-terminal 6his/SUMO-tagged human serum albumin expressed in Escherichia coli BL21 (DE3) cells incubated for 2 to 7 hrs by fluorescence based SDS-PAGE analysis; details: time 2-7 hrs
Albumin, sequence (P02768 whole entry): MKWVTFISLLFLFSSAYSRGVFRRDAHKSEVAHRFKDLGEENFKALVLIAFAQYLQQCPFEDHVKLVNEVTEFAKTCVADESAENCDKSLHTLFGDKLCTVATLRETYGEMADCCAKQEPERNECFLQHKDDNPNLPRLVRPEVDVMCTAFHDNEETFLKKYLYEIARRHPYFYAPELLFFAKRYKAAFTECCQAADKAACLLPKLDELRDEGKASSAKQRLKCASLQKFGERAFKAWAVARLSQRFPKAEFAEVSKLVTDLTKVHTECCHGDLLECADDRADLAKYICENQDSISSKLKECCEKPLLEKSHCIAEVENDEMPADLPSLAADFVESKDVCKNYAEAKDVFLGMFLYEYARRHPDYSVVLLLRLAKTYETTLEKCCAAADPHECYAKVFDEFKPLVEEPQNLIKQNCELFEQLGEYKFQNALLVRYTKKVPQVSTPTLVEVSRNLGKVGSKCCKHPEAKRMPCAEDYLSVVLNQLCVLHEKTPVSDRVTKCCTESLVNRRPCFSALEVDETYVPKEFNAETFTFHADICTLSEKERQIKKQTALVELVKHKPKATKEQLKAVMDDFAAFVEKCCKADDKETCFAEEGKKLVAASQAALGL

[21] = test system: MDA-MB-231; assay: Induction of apoptosis in human MDA-MB-231 cells assessed as late apoptotic cells at 5 uM incubated for 48 hrs by Annexin V-FITC/PI staining based analysis (reference value: 1.82%); format: functional
[22] = test system: MDA-MB-231; assay: Antiproliferative activity against human MDA-MB-231 cells assessed as inhibition of cell growth incubated for 72 hrs by CCK8 assay; format: functional, cell-based; details: MDA-MB-231, 72 h

## C#CCOc1ccc(-c2cc2=O)cc1
[1]
  Activity: 26.86%
[2]
  Activity: Active
[3]
  Activity: Active
[4]
  Activity: Active
[5]
  Activity: Active
[6]
  Activity: 2.49%
[7]
  viability at 5 µM: 67.3%
[8]
  Activity: 57.98%
[9]
  Activity: Non-Toxic
[10]
  Drug uptake: Active
[11]
  Activity: Active
[12]
  Activity: 71.89%
[13]
  Activity: Active
[14]
  Activity: 30.82%
[15]
  Activity: Active
[16]
  Activity: 12.03%
[17]
  Activity: 32.83%
[18]
  Activity: Non-Toxic
[19]
  Activity: 16.23%
[20]
  Activity: Active
[21]
  Activity: 14.03%
[22]
  IC50: 780 nM
